Source: patent US20100022562A1, “Use of Plant Growth Regulators to Reduce Abscisic Acid Related Plant Leaf Yellowing” (priority 2008, published 2010)

Experiments:
Pansy plants [1] = assay: Pansy shelf life under drought (daily wilting rating, sales index); assay type: in vivo
Method: All studies were conducted in the greenhouse at the research farm of Valent BioSciences Corporation (Long Grove, Ill.). Pansy plants were obtained either from local retailers as mature plants, or plugs from wholesale nurseries. Plugs of Pansy plants were transplanted into an 18-cell flat filled with Promix BX (available from Premier Horticulture Inc. Quakertown, Pa.) and grown for about 30 days prior to treatment. During growing periods, plants received daily irrigation and weekly fertilizer (1 g/L all purpose fertilizer 20-20-20, The Scotts Company, Marysville, Ohio).
(§1) Uniform plants were selected for the study. Prior to chemical treatment, plants were saturated with water and then drained for about two hours. A total of 20 mL chemical solution, which is equivalent to about 10% of the cell volume, was applied to each plant with 3 mL solution foliar applied to canopy and 17 mL solution drench applied to root zone. Unless specified, watering of plants was stopped after chemical treatment.
(§2) After chemical treatment, plants were arranged in a randomized complete block experimental design. The plants were rated daily for the extent of wilting on a scale from 1 (no wilting) to 4 (complete wilting) to generated a sales index rating. A rating of 2.5 was the point at which a plant was determined to be unmarketable and the previous day was recorded as the shelf life of that plant in days. Yellow leaf number was counted at 3 days after chemical treatment. Leaf transpiration rate was measured after treatment using a LI-1600 Steady State Porometer (LI-Cor, Lincoln, Nebr.). The transpiration rate of each treatment was calculated as the percentage of that of control at each day to reduce day-to-day variation caused by changes of environmental condition such as light intensity, humidity, and temperature.

Pansy plants [2] = assay: Pansy leaf transpiration rate (LI-1600 Steady State Porometer); assay type: in vivo; details: for Transpiration rate (% of control): Matrix Premium Rose
Method: as §1, §2

Substance: (S)-5-(1-hydroxy-2,6,6,-trimethyl-4-oxo-2-cyclohexen-1-yl)-3-methyl-(2Z,4E)-pentadienoic acid [ABA]
- Shelf life (Pansy plants [1]; 0.3 mg ABA, Matrix Yellow, Table 5): 4.8 days
- Shelf life (Pansy plants [1]; 0.3 mg ABA, Matrix Yellow, Table 6): 4.8 days
- Shelf life (Pansy plants [1]; 0.3 mg ABA, Matrix Yellow, Table 17): 3.2 days
- Shelf life (Pansy plants [1]; 1 mg, Matrix Orange, drought, Table 1): 5.0 days
- Shelf life (Pansy plants [1]; 3 mg ABA, Colossus Formula Mix, no water, Table 20): 5.2 days
- Shelf life (Pansy plants [1]; 3 mg ABA, Delta Premium Pure White, Table 21): 8.3 days
- Shelf life (Pansy plants [1]; 3 mg ABA, Delta Premium Pure White, Table 22): 5.7 days
- Shelf life (Pansy plants [1]; 3 mg ABA, Delta Premium Pure White, Table 24): 5.2 days
- Shelf life (Pansy plants [1]; 3 mg ABA, Matrix Yellow, Table 5): 5.7 days
- Shelf life (Pansy plants [1]; 3 mg ABA, Matrix Yellow, Table 6): 6.0 days
- Shelf life (Pansy plants [1]; 3 mg ABA, Matrix Yellow, Table 17): 4.3 days
- Shelf life (Pansy plants [1]; 3 mg ABA, no water, Matrix Premium Rose, Table 13): 4.8 days
- Shelf life (Pansy plants [1]; 3 mg, Clear Sky Yellow, drought, Table 8): 6.5 days
- Shelf life (Pansy plants [1]; 3 mg, Crown Azure Blue, drought, Table 9): 5.2 days
- Shelf life (Pansy plants [1]; 3 mg, Delta Premium Pure Golden Yellow, advanced seedling stage (1 month old), drought, Table 4): 4.2 days
- Shelf life (Pansy plants [1]; 3 mg, Delta Premium Pure Golden Yellow, drought, Table 3): 5.3 days
- Shelf life (Pansy plants [1]; 3 mg, Matrix Orange, drought, Table 1): 5.8 days
- Shelf life (Pansy plants [1]; 3 mg, Matrix Orange, drought, Table 2): 5.2 days
- Shelf life (Pansy plants [1]; 3 mg, Matrix Yellow, drought, Table 7): 7.7 days
- Shelf life (Pansy plants [1]; 3 mg, Matrix Yellow, drought, Table 10): 4.3 days
- Shelf life (Pansy plants [1]; 10 mg, Delta Premium Pure Golden Yellow, advanced seedling stage (1 month old), drought, Table 4): 5.7 days
- Shelf life (Pansy plants [1]; 10 mg, Delta Premium Pure Golden Yellow, drought, Table 3): 6.5 days
- Shelf life (Pansy plants [1]; 10 mg, Matrix Orange, drought, Table 1): 7.0 days
- Shelf life (Pansy plants [1]; 10 mg, Matrix Orange, drought, Table 2): 6.7 days
- Shelf life (Pansy plants [1]; 30 mg ABA, Colossus Formula Mix, Table 18): 6.2 days
- Shelf life (Pansy plants [1]; 30 mg ABA, Colossus Formula Mix, no water, Table 20): 6.5 days
- Shelf life (Pansy plants [1]; 30 mg ABA, Delta Premium Pure White, Table 19): 8.7 days
- Shelf life (Pansy plants [1]; 30 mg ABA, Delta Premium Pure White, Table 21): 10.2 days
- Shelf life (Pansy plants [1]; 30 mg ABA, Delta Premium Pure White, Table 22): 9.2 days
- Shelf life (Pansy plants [1]; 30 mg ABA, Delta Premium Pure White, Table 23): 8.2 days
- Shelf life (Pansy plants [1]; 30 mg ABA, Delta Premium Pure White, Table 24): 7.2 days
- Shelf life (Pansy plants [1]; 30 mg ABA, Matrix Premium Rose, no water from 1 day after ABA, Table 11): 7.2 days
- Shelf life (Pansy plants [1]; 30 mg ABA, Matrix Yellow, Table 5): 10.2 days
- Shelf life (Pansy plants [1]; 30 mg ABA, Matrix Yellow, Table 6): 10.8 days
- Shelf life (Pansy plants [1]; 30 mg ABA, Matrix Yellow, Table 17): 8.3 days
- Shelf life (Pansy plants [1]; 30 mg ABA, no water, Matrix Premium Rose, Table 13): 7.2 days
- Shelf life (Pansy plants [1]; 30 mg, Clear Sky Yellow, drought, Table 8): 7.8 days
- Shelf life (Pansy plants [1]; 30 mg, Crown Azure Blue, drought, Table 9): 6.7 days
- Shelf life (Pansy plants [1]; 30 mg, Delta Premium Pure Golden Yellow, advanced seedling stage (1 month old), drought, Table 4): 7.7 days
- Shelf life (Pansy plants [1]; 30 mg, Delta Premium Pure Golden Yellow, drought, Table 3): 8.0 days
- Shelf life (Pansy plants [1]; 30 mg, Matrix Orange, drought, Table 1): 8.0 days
- Shelf life (Pansy plants [1]; 30 mg, Matrix Orange, drought, Table 2): 9.2 days
- Shelf life (Pansy plants [1]; 30 mg, Matrix Yellow, drought, Table 7): 9.3 days
- Shelf life (Pansy plants [1]; 30 mg, Matrix Yellow, drought, Table 10): 8.0 days
- Transpiration rate (% of control) (Pansy plants [2]; 3 mg ABA, no water, day 1 after treatment, Table 14): 22 % of control
- Transpiration rate (% of control) (Pansy plants [2]; 3 mg ABA, no water, day 2 after treatment, Table 14): 15 % of control
- Transpiration rate (% of control) (Pansy plants [2]; 3 mg ABA, no water, day 3 after treatment, Table 14): 34 % of control
- Transpiration rate (% of control) (Pansy plants [2]; 3 mg ABA, no water, day 4 after treatment, Table 14): 35 % of control
- Transpiration rate (% of control) (Pansy plants [2]; 3 mg ABA, no water, day 5 after treatment, Table 14): 27 % of control
- Transpiration rate (% of control) (Pansy plants [2]; 3 mg ABA, watered, day 1 after treatment, Table 14): 23 % of control
- Transpiration rate (% of control) (Pansy plants [2]; 3 mg ABA, watered, day 2 after treatment, Table 14): 18 % of control
- Transpiration rate (% of control) (Pansy plants [2]; 3 mg ABA, watered, day 3 after treatment, Table 14): 36 % of control
- Transpiration rate (% of control) (Pansy plants [2]; 3 mg ABA, watered, day 4 after treatment, Table 14): 43 % of control
- Transpiration rate (% of control) (Pansy plants [2]; 3 mg ABA, watered, day 5 after treatment, Table 14): 59 % of control
- Transpiration rate (% of control) (Pansy plants [2]; 3 mg ABA, watered, day 7 after treatment, Table 14): 76 % of control
- Transpiration rate (% of control) (Pansy plants [2]; 3 mg ABA, watered, day 10 after treatment, Table 14): 97 % of control
- Transpiration rate (% of control) (Pansy plants [2]; 3 mg ABA, watered, day 15 after treatment, Table 14): 97 % of control
- Transpiration inhibition (Pansy plants [2]; 3 mg ABA, watered, within 5 days after treatment): more than 50%
- Transpiration rate (% of control) (Pansy plants [2]; 30 mg ABA, day 1 after ABA treatment, Table 12): 6 % of control
- Transpiration rate (% of control) (Pansy plants [2]; 30 mg ABA, day 2 after ABA treatment, Table 12): 8 % of control
- Transpiration rate (% of control) (Pansy plants [2]; 30 mg ABA, day 3 after ABA treatment, Table 12): 11 % of control
- Transpiration rate (% of control) (Pansy plants [2]; 30 mg ABA, no water, day 1 after treatment, Table 14): 7 % of control
- Transpiration rate (% of control) (Pansy plants [2]; 30 mg ABA, no water, day 2 after treatment, Table 14): 8 % of control
- Transpiration rate (% of control) (Pansy plants [2]; 30 mg ABA, no water, day 3 after treatment, Table 14): 8 % of control
- Transpiration rate (% of control) (Pansy plants [2]; 30 mg ABA, no water, day 4 after treatment, Table 14): 15 % of control
- Transpiration rate (% of control) (Pansy plants [2]; 30 mg ABA, no water, day 5 after treatment, Table 14): 21 % of control
- Transpiration rate (% of control) (Pansy plants [2]; 30 mg ABA, no water, day 7 after treatment, Table 14): 27 % of control
- Transpiration rate (% of control) (Pansy plants [2]; 30 mg ABA, watered, day 1 after treatment, Table 14): 7 % of control
- Transpiration rate (% of control) (Pansy plants [2]; 30 mg ABA, watered, day 2 after treatment, Table 14): 7 % of control
- Transpiration rate (% of control) (Pansy plants [2]; 30 mg ABA, watered, day 3 after treatment, Table 14): 9 % of control
- Transpiration rate (% of control) (Pansy plants [2]; 30 mg ABA, watered, day 4 after treatment, Table 14): 15 % of control
- Transpiration rate (% of control) (Pansy plants [2]; 30 mg ABA, watered, day 5 after treatment, Table 14): 21 % of control
- Transpiration rate (% of control) (Pansy plants [2]; 30 mg ABA, watered, day 7 after treatment, Table 14): 28 % of control
- Transpiration rate (% of control) (Pansy plants [2]; 30 mg ABA, watered, day 10 after treatment, Table 14): 56 % of control
- Transpiration rate (% of control) (Pansy plants [2]; 30 mg ABA, watered, day 15 after treatment, Table 14): 99 % of control
- Transpiration inhibition (Pansy plants [2]; 30 mg ABA, watered, through 10 days after treatment): more than 50%
